Results reported in US8377963B2, “Insulin-regulated aminopeptidase (IRAP) inhibitors and uses thereof” (Howard Florey Institute, priority 2007, dated 2013).

Key:
rats [1] = assay: Novel object recognition task; assay type: in vivo, rat; details: for Recognition Index: rats, n=10/group
Experimental: (§1) All experiments were performed according to the National Health and Medical Research Council of Australia “Code of practise for the care and use of animals for scientific purposes”. Male Spraque Dawley rats, (250-270 g) are housed individually and given water and standard rat chow ad libitum. On the day of surgery, the rats were anaesthetized with 5% isofluorane, placed in a stereotaxic frame and maintained on 2% isofluorane for the duration of the cannula implantation procedure. The rats were stereotaxically implanted with chronic indwelling cannula (Plastics One) into the cerebral lateral ventricles using the following flat skull coordinates 0.8 mm posterior to Bregma, 1.55 mm lateral to midline and 3.5 mm ventral to the dura. The cannula was then secured to the skull with stainless steel screws and dental cement. Seven days following surgery, proper cannula placement was verified by a bolus injection of angiotensin II (1 nmol/μl).
The rats are allowed at least 5 days post-operative recovery prior to use in any behavioural paradigms. On the day of the acquisition trial, the rats were habituated for 5 min in the testing box (made from grey perspex of dimensions 60 cm width×60 cm length×50 cm height) in diffuse dim light and then returned to their home cage. The animals were then rested for at least 2 h and then injected with 1 nmol or 0.1 nmol Compound 2 in 2 μl of 10% dimethyl sulfoxide (DMSO). Control animals received 2 μl of 10% DMSO. Following drug administration, the rats were returned to their home cage for 5 min and then placed in the testing box facing the opposite direction to 2 identical objects that have been secured to the floor in adjacent corners of the box. The rats were allowed 5 min to explore the objects and the definition of explore is that the animal's nose is less than 2 cm from object when it is facing the object. […] The recognition index was determined as the time spent exploring the novel object minus the time spent on the familiar object divided by the time spent on both object.

Aminopeptidase N = biological target: T1, Aminopeptidase N (Sus scrofa, UniProt P15145); assay: Aminopeptidase N assay; assay type: biochemical; details: 10 μM; read-out: % inhibition of the catalytic activity of the enzyme
T1 construct: purchased Sigma Aldrich
T1 sequence (P15145 1-963): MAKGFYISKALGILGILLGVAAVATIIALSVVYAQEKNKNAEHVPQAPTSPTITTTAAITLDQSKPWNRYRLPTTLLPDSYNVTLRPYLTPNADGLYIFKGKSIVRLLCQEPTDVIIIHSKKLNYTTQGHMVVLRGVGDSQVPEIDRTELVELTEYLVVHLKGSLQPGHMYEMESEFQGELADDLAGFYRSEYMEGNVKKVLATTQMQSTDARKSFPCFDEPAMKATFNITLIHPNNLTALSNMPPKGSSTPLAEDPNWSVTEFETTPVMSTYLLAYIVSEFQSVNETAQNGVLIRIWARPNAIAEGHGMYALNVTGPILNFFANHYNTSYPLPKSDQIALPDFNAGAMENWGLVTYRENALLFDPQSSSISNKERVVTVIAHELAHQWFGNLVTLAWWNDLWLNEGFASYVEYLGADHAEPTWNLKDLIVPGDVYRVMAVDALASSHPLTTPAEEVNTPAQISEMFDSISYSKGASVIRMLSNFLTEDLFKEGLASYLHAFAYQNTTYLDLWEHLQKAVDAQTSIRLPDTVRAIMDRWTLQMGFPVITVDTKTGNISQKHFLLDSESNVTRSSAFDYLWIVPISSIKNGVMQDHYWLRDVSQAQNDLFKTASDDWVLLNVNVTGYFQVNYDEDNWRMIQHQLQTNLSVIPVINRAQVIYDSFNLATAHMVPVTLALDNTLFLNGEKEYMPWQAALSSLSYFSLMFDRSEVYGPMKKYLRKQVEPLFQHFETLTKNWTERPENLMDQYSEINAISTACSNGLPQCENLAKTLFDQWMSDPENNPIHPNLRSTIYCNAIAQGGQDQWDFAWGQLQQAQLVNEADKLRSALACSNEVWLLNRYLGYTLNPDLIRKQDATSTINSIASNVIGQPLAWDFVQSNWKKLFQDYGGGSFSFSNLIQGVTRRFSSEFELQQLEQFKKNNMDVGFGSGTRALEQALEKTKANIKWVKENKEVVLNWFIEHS
Experimental: Aminopeptidase N assay. 5 mU of aminopeptidase M (Sigma Aldrich) was incubated with 100 μM of substrate alanine-β-naphthylamide (Sigma Aldrich) in Tris buffered saline (50 mM Tris-HCl, 150 mM NaCl pH 7.5) at 25° C. IRAP inhibitors (1-10 μM) were added after 1 minute and fluorescence at 405 nm was followed.
Limited inhibition of control enzymes was observed.

rats [2] = assay: Elevated plus maze (stress or anxiety); assay type: in vivo, rat; details: for Time spent in the open arm (% control): rats, n=8 per group
Experimental: as §1
The elevated plus maze was used to investigate the potential effect of IRAP inhibitors on stress or anxiety. The elevated plus maze consists of two open arms (70×10 cm) with a 5 cm high surrounding wall and two enclosed arms (70×10 cm) with a 27 cm high surrounding wall. The floor of the open and closed arms are white laminate, the open arm walls are clear perspex, and the closed arms walls dark grey perspex. The maze is elevated 85 cm above the ground in the centre of a room that is lit by overhead lights generating 1241 ux. […] The time spent in the closed arms compared to the open arms was a measure of the anxiety status of the animals.

[3] = 0.1 nmol intracerebroventricularly
[4] = 1 nmol intracerebroventricularly

In the case of `CCOC(=O)C1=C(NC(C)=O)Oc2cc(O)ccc2C1c1cccnc1` (stereo not shown) [Compound 2, Ethyl 2-(acetylamino)-7-hydroxy-4-pyridin-3-yl-4H-chromene-3-carboxylate], the “Recognition Index” value (rats [1]; [3]) is reported as 35.82 ± 7.30, the “Recognition Index” value (rats [1]; [4]) is reported as 45.09 ± 9.97 and the “recognition of a novel object compared to vehicle treated control rats” value (rats [1]; 1 and 0.1 nmole intracerebroventricularly, after 24 h, p<0.05) is reported as “better recognition of a novel object”. The inhibition at 10 µM (Aminopeptidase N) was 13%, the “Time spent in the open arm (% control)” value (rats [2]; [3]) was 121.62 ± 28.26 % control and the “Time spent in the open arm (% control)” value (rats [2]; [4]) was 127.88 ± 19.18 % control. The “stress compared to vehicle, by time spent in the open arm of the elevated plus maze” value (rats [2]; 0.1 and 1 nmol intracerebroventricularly) was “not significantly more or less stressed”.
